Data on 2 compounds can be found in patent US8841233B2, “Herbicidal compositions comprising 4-amino-3-chloro-5-fluoro-6-(4-chloro-2-fluoro-3-methoxyphenyl) pyridine-2-carboxylic acid or a derivative thereof and 4-hydroxyphenyl-pyruvate dioxygenase (HPPD) inhibitors” (Dow Agrosciences LLC, priority 2012, dated 2014).

In one experiment the test system is LEFCH. Put plainly: Post-emergence foliar-applied weed control, greenhouse (Example I). Format: in vivo, Leptochloa chinensis (L.) Nees. An excerpt: Evaluation of Post-emergence Foliar-Applied Herbicidal Mixtures for Weed Control in Direct Seeded Rice
Seeds or nutlets of the desired test plant species were planted in a soil matrix prepared by mixing a loam or sandy loam soil (e.g., 28.6 percent silt, 18.8 percent clay, and 52.6 percent sand, with a pH of about 5.8 and an organic matter content of about 1.8 percent) and calcareous grit in an 80 to 20 ratio. The soil matrix was contained in plastic pots with a volume of 1 quart and a surface area of 83.6 square centimeters (cm^2). When required to ensure good germination and healthy plants, a fungicide treatment and/or other chemical or physical treatment was applied. The plants were grown for 8-22 days in a greenhouse with an approximate 14 h photoperiod which was maintained at about 29° C. during the day and 26° C. during the night. Nutrients (Peters Excel® 15-5-15 5-Ca 2-Mg and iron chelate) were applied in the irrigation solution as needed and water was added on a regular basis. Supplemental lighting was provided with overhead metal halide 1000-Watt lamps as necessary. The plants were employed for testing when they reached the first through fourth true leaf stage. […]
Treatment requirements were calculated based upon the rates being tested, the concentration of active ingredient or acid equivalent in the formulation, and a 12 mL application volume at a rate of 187 L/ha.
For treatments comprised of formulated compounds, measured amounts of compounds were placed individually in 25 mL glass vials and diluted in a volume of 1.25% (v/v) Agri-Dex® crop oil concentrated to obtain 12× stock solutions. […]
For treatments comprised of formulated and technical compounds, weighed amounts of the technical materials were placed individually in 25 mL glass vials and dissolved in a volume of 97:3 v/v acetone/DMSO to obtain 12× stock solutions, and measured amounts of the formulated compounds were placed individually in 25 mL glass vials and diluted in a volume of 1.5% (v/v) crop oil concentrate or water to obtain 12× stock solutions. […]

The subject of the next experiment is SCPJU. The experiment can be described thus: In-water applied weed control, transplanted paddy rice, greenhouse (Example II). The class given is in vivo, Schoenoplectus juncoides (Roxb.) Palla. As to conditions: 4.38 gae/ha. The method, then:
Evaluation of in-Water Applied Herbicidal Mixtures for Weed Control in Transplanted Paddy Rice
Weed seeds or nutlets of the desired test plant species were planted in puddled soil (mud) prepared by mixing a shredded, non-sterilized mineral soil (50.5 percent silt, 25.5 percent clay, and 24 percent sand, with a pH of about 7.6 and an organic matter content of about 2.9 percent) and water at a 1:1 volumetric ratio. The prepared mud was dispensed in 365 mL aliquots into 16-ounce (oz.) non-perforated plastic pots with a surface area of 86.59 square centimeters (cm^2) leaving a headspace of 3 centimeters (cm) in each pot. Mud was allowed to dry overnight prior to planting or transplanting. Rice seeds were planted in Sun Gro MetroMix® 306 planting mixture, which typically has a pH of 6.0 to 6.8 and an organic matter content of about 30 percent, in plastic plug trays. Seedlings at the second or third leaf stage of growth were transplanted into 840 mL of mud contained in 32-oz. non-perforated plastic pots with a surface area of 86.59 cm^2 4 days prior to herbicide application. The paddy was created by filling the headspace of the pots with 2.5 to 3 cm of water. When required to ensure good germination and healthy plants, a fungicide treatment and/or other chemical or physical treatment was applied. The plants were grown for 4-22 days in a greenhouse with an approximate 14 h photoperiod which was maintained at about 29′C during the day and 26° C. during the night. Nutrients were added as Osmocote® (19:6:12, N:P:K+ minor nutrients) at 2 g per 16-oz. pot and 4 g per 32-oz. pot. […]
Treatment requirements for each compound or herbicidal component were calculated based upon the rates being tested, the concentration of active ingredient or acid equivalent in the formulation, an application volume of 2 mL per component per pot, and an application area of 86.59 cm^2 per pot.
For formulated compounds, a measured amount was placed in an individual 100 or 200 mL glass vial and was dissolved in a volume of 1.25% (v/v) Agri-Dex® crop oil concentrate to obtain application solutions. […]

Each structure is given as a SMILES string.

For the compound `COc1c(Cl)ccc(-c2nc(C(=O)O)c(Cl)c(N)c2F)c1F` [Compound A Acid, 4-amino-3-chloro-6-(4-chloro-2-fluoro-3-methoxyphenyl)-5-fluoropyridine-2-carboxylic acid], the figures for the “Visual Weed Control (%) - 21 DAA LEFCH Obs” value in the experiment with LEFCH (17.5 gae/ha) and with LEFCH (35 gae/ha) were 10% and 60%, respectively. Turning to `COc1c(Cl)ccc(-c2nc(C(=O)OCc3ccccc3)c(Cl)c(N)c2F)c1F` [Compound A Benzyl Ester, benzyl ester of 4-amino-3-chloro-5-fluoro-6-(4-chloro-2-fluoro-3-methoxy-phenyl)pyridine-2-carboxylic acid], the “Visual Weed Control (%) - 21 DAA SCPJU Obs” value in the experiment on SCPJU turned out to be 70%.
